Where “and” joins values, the source holds several entries; their conditions need not be identical. Equal entries are not always repeated.
What was measured:
[1] = Self-assembling properties by dynamic light scattering (DLS); type: physicochemical; conditions: 0.1 mM in aqueous medium, ethanol injection, freshly prepared
Procedure: The estimation of self-assembling properties for the selected compounds was performed using dynamic light scattering (DLS) measurements. The values for the polydispersity index (PDI) and the hydrodynamic average diameter (Dav) of nanoparticles formed by compounds 6a,c–e,g were determined (with a final compound concentration of 0.1 mM in the aqueous medium). The nanoparticles were prepared by the ethanol injection method via the dissolution of the compound in ethanol and after that by the dispersion of the solution into water. The approach is rapid, simple, and can be easily scaled up. This method was previously used successfully for the preparation and characterisation of lipid-like pyridinium amphiphiles. The DLS measurements were performed for freshly prepared samples at room temperature.
The self-assembling properties of the tested compounds were estimated according to a published procedure with minor modifications. Stock solutions of the compounds were prepared in EtOH at a concentration of 1 mM. Stock solutions of the compounds (0.3 mL) were injected into 2.7 mL of deionised water with maximum stirring (IKA Vortex 2 (IKA, Staufen, Germany)) to obtain a final concentration of 0.1 mM. The DLS measurements of the nanoparticles in the aqueous solution were conducted using a Zetasizer Nano ZSP (Malvern Panalytical Ltd., Malvern, UK) instrument with Malvern Instruments Ltd. Software 8.01.4906. The measurements were performed with the following settings—medium: water; refractive index: 1.33; viscosity: 0.8872 cP; temperature: 25 °C; dielectric constant: 78.5; nanoparticles: liposomes; refractive index of materials: 1.60; detection angle: 173° wavelength: 633 nm. The obtained data were analysed using the multimodal number distribution software provided with the instrument. To ensure reproducibility, the measurements were performed in triplicate.

[2] = system: NIH3T3 (mouse fibroblast) cell line; assay: Basal cytotoxicity, neutral red uptake (NRU) assay, with LD50 estimated from IC50; type: cell-based
Procedure: The evaluation of the in vitro cytotoxicity (IC50, half maximal inhibitory concentration) of the abovementioned compounds and their structural derivatives was assessed using the standard colorimetric 3-(4,5-dimethylthiazol-2-yl)-2,5-diphenyltetrazolium bromide (MTT) assay on two monolayer tumour cell lines, namely HT-1080 (human connective tissue fibrosarcoma) and MH-22A (mouse hepatocarcinoma). Additionally, the impact of the compound on non-cancerous “normal” cells—mouse fibroblasts (NIH3T3)—was estimated in order to measure the basal toxicity (LD50, median lethal dose). The obtained results were used for investigation of the structure–activity relationships and exploration of the effect of substituents on cellular response and toxicity. The estimated LD50 gives information regarding the compound properties and could potentially be used to select promising compounds by providing a starting dose for in vivo experiments.
To assess basal cytotoxicity, the neutral red uptake (NRU) assay was conducted following a modified version of the standard protocol of Stokes’ [71], as validated by the NICEATM-ECVAM study. The NRU cytotoxicity assay determines the ability of viable cells to incorporate and bind a supravital dye, neutral red (NR).
NIH3T3 cells (9000 cells/well) were cultured in 96-well plates in DMEM medium supplemented with 5% FBS for 24 h. Subsequently, the cells were exposed to the test compounds over a range of seven concentrations (1000 µg/mL, 316 µg/mL, 100 µg/mL, 31 µg/mL, 10 µg/mL, 3.0 µg/mL, and 1.0 µg/mL) for 24 h. Untreated cells were used as a control. After the incubation period, the medium was removed from all plates and a solution of NR was added (250 µL, 0.05 mg/mL NR in DMEM 24 h pre-incubated at 37 °C and then filtered before use through a 0.22 µm syringe filter). The plates were incubated for 3 h, followed by three washes with phosphate-buffered saline (PBS). The cells were then treated with a mixture of ethanol (50%) and water (49%) supplemented with 1% acetic acid. The absorbance of NR was measured using a spectrophotometer multiplate reader (Infinite M1000; Tecan Austria GmbH, Salzburg, Austria) at 540 nm. The optical density (OD) was then calculated using the following formula: ODtreated cells×100/ODcontrol cells.
The IC50 values were calculated using the program Graph Pad Prism® 3.0.
In vitro test results were employed to estimate the starting dose for acute oral systemic toxicity tests in rodents (LD50). The LD50 value was calculated using the in vitro IC50 value and a following formula: logLD50(mM/kg)=0.439×logIC50(mM)+0.621
The value was then converted to mg/kg and the compounds classified into four toxicity categories. Category 1 (highly toxic): LD50 ≤ 5 mg/kg; Category 2 (moderately toxic): 5 < LD50 ≤ 50 mg/kg; Category 3 (slightly toxic): 50 < LD50 ≤ 300 mg/kg; Category 4 (practically non-toxic): 300 < LD50 ≤ 2000 mg/kg.

CCCCCCCCCCCC[n+]1ccc(C=Cc2cc(OC)c(OC)c(OC)c2)cc1.[Br-] [Compound 6a, 4-(3,4,5-trimethoxystyryl)-N-dodecylpyridinium bromide]
PDI (polydispersity index) [1]: 0.331 ± 0.261 | times decrease of basal toxicity of 6a compared with 6d ([2]; ratio of LD50 values): 1.5 times

CCCCCCCCCCCCCCCC[n+]1ccc(C=Cc2cc(OC)c(OC)c(OC)c2)cc1.[Br-] [Compound 6b]
times more toxic than 6a, basal toxicity [2]: 2.8 times | Basal cytotoxicity (NIH3T3) LD50 ([2]; estimated from in vitro NRU IC50 (24 h) by log LD50 = 0.439 x log IC50 + 0.621): 91 ± 6 mg/kg | Basal cytotoxicity (NIH3T3) LD50 ([2]; mouse): 0.15 mM/kg

CCCCCCCCCCCCCCCC[n+]1ccc(C=CC=Cc2ccc(OC)cc2)cc1.[Br-] [Compound 6c, 1-hexadecyl-4-(4-(4-methoxyphenyl)buta-1,3-dien-1-yl)pyridin-1-ium bromide]
Dav, nm (average diameter of formed nanoparticles) [1]: 212 nm and 212 ± 4 nm | PDI (polydispersity index) [1]: 0.218 ± 0.026

CCCCCCCCCCCC[n+]1ccc(C=Cc2cc3c4c(c2)CCCN4CCC3)cc1.[Br-] [Compound 6d, 1-dodecyl-4-(2-(2,3,6,7-tetrahydro-1H,5H-pyrido[3,2,1-ij]quinolin-9-yl)vinyl)pyridin-1-ium bromide]
PDI (polydispersity index) [1]: 0.286 ± 0.030 | times higher basal cytotoxicity than compound 7a ([2]; 6d versus 7a): 6.5 times

CCCCCCCCCCCCCCCC[n+]1ccc(C=CC=Cc2cc3c4c(c2)CCCN4CCC3)cc1.[Br-] [Compound 6e, 1-hexadecyl-4-(4-(2,3,6,7-tetrahydro-1H,5H-pyrido[3,2,1-ij]quinolin-9-yl)buta-1,3-dien-1-yl)pyridin-1-ium bromide]
Dav, nm (average diameter of formed nanoparticles) [1]: 118 nm and 118 ± 4 nm | PDI (polydispersity index) [1]: 0.260 ± 0.011 | times lower basal cytotoxicity than 6d ([2]; 6e versus 6d): ~ 2.8 times | basal toxicity classification in words ([2]; from estimated LD50, NIH3T3): harmful

— paper PMC10535741, “Styrylpyridinium Derivatives for Fluorescent Cell Imaging” (Pharmaceuticals, 2023)
